The structures appear in SMILES notation. Where “and” joins values, the source holds several entries; their conditions need not be identical. Equal entries are not always repeated.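 Interpolation was linear, between the two tested concentrations surrounding the appropriate level; five concentrations were tested over 48 hours in 96-well plates. The concentration for 50% growth inhibition is given as GI50. TGI: concentration producing complete growth inhibition.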

In this test the test system is MDA-MB-468 breast. Kind of test: growth of human tumour cells (NCI), 48 h.
Regarding `O=c1[nH]c2ccccc2n1C1CCN(CCCC(c2ccc(F)cc2)c2ccc(F)cc2)CC1`, the GI50 was 1320 nM and 1500 nM; the TGI is 2830 nM and 4460 nM. `N#C/C(=C\c1cc2ccc(N3CCC3)cc2oc1=O)C(=O)N(CC(=O)O)CC(=O)O`: the GI50 is greater than 100000 nM and the TGI was greater than 100000 nM. `COc1ccc(/C=N\Nc2nc(SCC(C)C)nc(-c3ccc(OC)cc3)c2C#N)cc1`: the GI50 was 4360 nM and the TGI came to 28000 nM.

As for `Clc1ccc([I+]c2ccc(Cl)cc2Cl)c(Cl)c1`, the GI50 was 1330 nM and the TGI was determined as 2810 nM. Consider `N#Cc1c(NC(=O)c2ccccc2F)sc2c1CCCC2`, for which the GI50 is 5650 nM and the TGI is greater than 25000 nM. As for `COc1ccc(-c2c3c(N)c4c(nc3nc3c2c(C)nn3-c2ccccc2)CCCC4)cc1`, the GI50 was 2330 nM and the TGI was 7670 nM. Turning to `COc1ccc(S(=O)(=O)N2CCNCC2)cc1OC`, the GI50 was greater than 100000 nM and the TGI was greater than 100000 nM.

Regarding `Nc1nc2ccccc2c2c1S(=O)(=O)c1ccc(Cl)cc1C2=O`, the GI50 was 735 nM and the TGI is 2150 nM. Taken in the same sequence, the figures for `CC(C)N(Cc1ccc(F)cc1)c1ccc(CO)c(Cl)c1` were 17 nM and 46.3 nM. `CC1CCN(CCOc2ccc(CNc3ccc4nc(CCC5CCCCC5)[nH]c4c3)cc2)CC1`: the GI50 was 1550 nM and the TGI is 3250 nM. Consider `C=C1C(=O)O[C@H]2[C@H]1CC/C(COC(=O)NCc1c[nH]c3ccc(F)cc13)=C\CC[C@@]1(C)O[C@@H]21`, for which the GI50 was 1090 nM and the TGI was found to be 2910 nM. `N#Cc1cccc(Nc2ncc(-c3ccccc3)o2)c1`: the GI50 was 5290 nM and the TGI is greater than 25000 nM. Taken in the same sequence, the figures for `C=CCN(CC=C)C(=O)[C@H](CC)[C@@H]1CC[C@@H](C)[C@@H]([C@H](C)[C@@H](O)[C@@H](C)C(=O)[C@H](CC)C2O[C@]3(C=C[C@@H](O)[C@]4(CC[C@@](C)([C@H]5CC[C@](O)(CC)[C@H](C)O5)O4)O3)[C@H](C)C[C@@H]2C)O1` (stereo partly drawn) were 1530 nM and 4840 nM. For the compound `COc1cc2c(cc1NC(=O)C(Cl)Cl)-c1ccc(NC(=O)C(Cl)Cl)cc1C2`, the GI50 is 280 nM and the TGI came to 931 nM. Turning to `C=CC(=O)N[C@@H](/C=C/C(=O)OCC)Cc1ccc(-c2cc(Cl)cc(Cl)c2)cc1`, the GI50 was 5170 nM and the TGI was found to be 48100 nM. Taken in the same sequence, the figures for `COCCOCCOCCOCCOC(=O)OC[n+]1ccc(NC(=NCCCCCCOc2ccc(Cl)cc2)NC#N)cc1` were 1420 nM and 9990 nM. For `CC1(C)[C@H](O)[C@H](F)C[C@@]2(C)Oc3ccc(C(=O)Nc4ccc5c(c4)NC(=O)C54CCN(CCCCC#N)CC4)cc3C[C@H]12`, the GI50 is 65.4 nM and 128 nM; the TGI was 10700 nM. As for `O=S(=O)(NCCCNc1cc(-c2cn(-c3ccccc3)nc2-c2cccc(O)c2)ccn1)c1ccc(F)cc1`, the GI50 was 2550 nM and the TGI is 6730 nM. Take `O=C(c1cc(Cc2n[nH]c(=O)c3ccccc23)ccc1F)N1CCN(C(=O)C2CC2)CC1`: the GI50 is 8290 nM and 13900 nM; the TGI was greater than 100000 nM.

`COc1ccc(C2CC(c3ccc(N(C)C)cc3)=NN2c2ccc(S(N)(=O)=O)cc2)cc1` (stereo not drawn): the GI50 was 3280 nM and the TGI was greater than 100000 nM. As to `C[C@H]1CN(C2COC2)CCN1c1ccc(Nc2cc(-c3ccnc(N4CCn5c(cc6c5CC(C)(C)C6)C4=O)c3CO)cn(C)c2=O)nc1`, the GI50 is 22900 nM and the TGI was 89400 nM.

On to `COC1=C(OC)C(=O)C(CCCCCCCCCCO)=C(C)C1=O`, for which the GI50 was 1660 nM and the TGI was 3760 nM. Consider `S=C(NCc1ccc2c(c1)OCO2)N1CCN(c2ncnc3c2oc2ccccc23)CC1`, for which the GI50 was 456 nM and the TGI is greater than 100000 nM. Taken in the same sequence, the figures for `Cc1ccc(-n2c(-c3cc4c([nH]c5ccccc54)c(-c4cccc(O)c4)n3)n[nH]c2=S)cc1` were 280 nM and 1180 nM. As to `CCn1ccnc1C(=O)/C=C/c1ccc(CC(=O)Nc2ccc(F)cc2)cc1`, the GI50 is 1990 nM and the TGI turned out to be 4940 nM. For `O=S(=O)(NCCCNc1nccc(-c2c(-c3ccc(F)cc3)nc3sccn23)n1)c1ccc(F)cc1`, the GI50 is 4550 nM and the TGI is greater than 100000 nM. On to `COc1ccc(-c2[nH]c3ccccc3c2/C=C(\C#N)S(=O)(=O)c2ccccc2)cc1`, for which the TGI amounted to 1930 nM.

For the compound `COc1ccc(COc2cc3oc(=O)c4cc(C(C)O)ccc4c3cc2OC)cc1` (stereo not drawn), the GI50 is 9200 nM and the TGI is greater than 100000 nM.

With `N#CCNC(=O)c1ccc(-c2ccnc(Nc3ccc(N4CCOCC4)cc3)n2)cc1`, the GI50 was 2690 nM and 2350 nM; the TGI was > 10000 nM and 11900 nM. On to `O=C1c2ccccc2C(=O)c2c1cc1c(c2[N+](=O)[O-])OCO1`, for which the GI50 was 1640 nM and the TGI amounted to 4410 nM. Taken in the same sequence, the figures for `NCc1ccc(-c2nc(-c3ccc(Cl)c(O)c3)c(-c3ccncc3)[nH]2)cc1` were greater than 12200 nM and greater than 25000 nM. Consider `CCN(Cc1ccc(F)cc1)c1ccc(CO)c(C(F)(F)F)c1`, for which the GI50 was 165 nM and the TGI is 499 nM. As to `C[C@@H](NC(=O)c1ccc(F)cc1)c1ccc2c(c1)CCN2C(=O)C1CCOCC1`, the GI50 was greater than 100000 nM and the TGI is greater than 100000 nM. Consider `Fc1ccc2nc(-c3nc(-c4ccccc4)n4ccccc34)[nH]c2c1`, for which the GI50 was 1490 nM and the TGI stood at 4020 nM.

In the case of `CC1SC(c2ccc(Cl)cc2)N(CCc2cccs2)C1=O` (stereo not drawn), the GI50 was 1470 nM and the TGI was 3750 nM.

For `COc1cc(C(=O)/C=C/c2c(C(F)(F)F)nc3ccccn23)cc(OC)c1OC`, the GI50 was 2120 nM and the TGI is 4720 nM.

Regarding `Nc1nc(-c2ccc(Cl)cc2)nc2c1sc(=S)n2-c1ccccc1`, the GI50 was 4060 nM and the TGI came out at 23200 nM.

In the case of `COc1ccc2c(c1)C(=O)c1c-2c(=O)n(CCCN(C)C)c2cc(OC)c(OC)cc12`, the GI50 was 1430 nM and the TGI worked out at 9920 nM. Turning to `COC(=O)c1cc([N+](=O)[O-])cc([N+](=O)[O-])c1Cl`, the GI50 is 1220 nM and the TGI is 2570 nM.

As to `O=C(NCCCNc1cc(-c2cn(-c3ccccc3)nc2-c2cccc(O)c2)ccn1)Nc1cccc(C(F)(F)F)c1`, the GI50 was 1610 nM and the TGI came out at 6150 nM. Taken in the same sequence, the figures for `Clc1nc(Cl)c2ncn(CCOCCn3cnc4c(Cl)nc(Cl)nc43)c2n1` were 179 nM and 359 nM.

As for `C=CC[N+]1(CC)CCN=C1CCCCCCCCCCCCCCCCC` (stereo not drawn), the GI50 is 135 nM and the TGI came to 538 nM. Taken in the same sequence, the figures for `CC(=O)N(O)c1ccc(/C=C/c2ccccc2)cc1` were 68.6 nM and 932 nM. Taken in the same sequence, the figures for `c1ccc(C2CCCCC2)c(OCCCCCN2CCNCC2)c1` were 1770 nM and 4200 nM. Take `COc1cc(-c2ncn(/C=C\c3nnco3)n2)cc(C(F)(F)F)c1`: the GI50 is 518 nM and the TGI amounted to 3960 nM.

As for `O=C1/C(=C/c2ccccc2[N+](=O)[O-])COc2ccc(O)cc21`, the GI50 is 1100 nM and the TGI was 4560 nM. As to `Cn1c(C(=O)c2cccc3ccccc23)nc2ccccc21`, the GI50 is 5920 nM and the TGI was greater than 100000 nM.

For the origin of these results see PubChem BioAssay (NCI).
